Experimental data from patent US7354726B2, “Screening method” (Takeda Pharmaceutical Company Limited, priority 2001, dated 2008).

Experiments:
TGR5 [1] = molecular target: T1, TGR5 (Homo sapiens, UniProt Q8TDU6); assay: cAMP production in TGR5 expressing CHO cells (CHO-TGR5); assay type: cell-based; parameters: expressed in transfected cells; settings: CHO-TGR5, 20 minutes; potency in order TLCA, LCA, DCA, CDCA, CA
T1 sequence (Q8TDU6 1-330): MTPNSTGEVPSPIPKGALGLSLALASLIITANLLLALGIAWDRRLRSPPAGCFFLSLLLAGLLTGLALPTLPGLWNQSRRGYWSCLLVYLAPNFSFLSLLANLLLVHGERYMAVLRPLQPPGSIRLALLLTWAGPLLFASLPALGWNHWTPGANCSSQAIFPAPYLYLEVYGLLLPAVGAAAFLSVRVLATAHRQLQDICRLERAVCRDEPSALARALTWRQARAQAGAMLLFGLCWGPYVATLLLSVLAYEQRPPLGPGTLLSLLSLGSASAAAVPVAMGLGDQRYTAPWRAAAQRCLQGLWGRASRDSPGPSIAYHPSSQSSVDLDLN
Method: The cells were washed twice with assay buffer (DMEM supplemented with 0.1% bovine serum albumin and 0.2 mM 3-isobutyl-1-methylxanthine (IBMX)) and preincubated for 30 minutes. After washing the cells twice, a sample diluted with assay buffer was added to the cells, and the cells were incubated for 20 minutes. The culture supernatant was discarded, and by cAMP Screen System (ABI), cAMP production level was measured. […] The cAMP production level was represented by % for positive control as 100%.

rabbit TGR5 = molecular target: T2, rabbit TGR5 (Oryctolagus cuniculus, UniProt Q862A8); assay: CRE-luciferase reporter assay in CHO-mock cells co-expressing Gi and rabbit TGR5; assay type: cell-based; settings: 10 μM bile acid, rabbit TGR5, versus group with no bile acid (Base)
T2 construct: expressed in transfected cells; host or cells: CHO-mock cells, transient, with Gi plasmid and reporter plasmid
T2 sequence (Q862A8 1-330): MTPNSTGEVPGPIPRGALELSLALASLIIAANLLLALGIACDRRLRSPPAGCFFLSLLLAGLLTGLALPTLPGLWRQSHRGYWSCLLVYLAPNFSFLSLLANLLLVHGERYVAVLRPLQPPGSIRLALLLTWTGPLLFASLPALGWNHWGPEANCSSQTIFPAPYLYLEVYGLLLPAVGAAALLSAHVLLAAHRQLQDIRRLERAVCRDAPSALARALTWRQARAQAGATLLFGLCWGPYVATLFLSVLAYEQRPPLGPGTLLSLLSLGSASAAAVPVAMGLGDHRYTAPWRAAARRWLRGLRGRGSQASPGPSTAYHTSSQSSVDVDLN
Method: (§1) Alternatively, an assay under condition wherein forskolin was added to the assay buffer at the final concentration of 2 μM, was performed in the same way. […] After completion of incubation, the assay buffer was removed from each well. Then 50 μl of luminescent substrate for PicaGene LT2.0 (Toyo Ink) was added to each well.
(§2) The mixing ratio of these three plasmids is, where the total volume is 11 μl, appropriate for 1 to 6, preferably 1 to 3 of Gi.
(§3) For a positive control of reporter gene expression, forskolin (FSSK, 2 μM) was used.

rat TGR5 = molecular target: T3, rat TGR5 (Rattus norvegicus, UniProt Q80T02); assay: CRE-luciferase reporter assay in CHO-mock cells co-expressing Gi and rat TGR5; assay type: cell-based; settings: 10 μM bile acid, rat TGR5, versus group with no bile acid (Base)
T3 construct: expressed in transfected cells; host or cells: CHO-mock cells, transient, with Gi plasmid and reporter plasmid
T3 sequence (Q80T02 1-329): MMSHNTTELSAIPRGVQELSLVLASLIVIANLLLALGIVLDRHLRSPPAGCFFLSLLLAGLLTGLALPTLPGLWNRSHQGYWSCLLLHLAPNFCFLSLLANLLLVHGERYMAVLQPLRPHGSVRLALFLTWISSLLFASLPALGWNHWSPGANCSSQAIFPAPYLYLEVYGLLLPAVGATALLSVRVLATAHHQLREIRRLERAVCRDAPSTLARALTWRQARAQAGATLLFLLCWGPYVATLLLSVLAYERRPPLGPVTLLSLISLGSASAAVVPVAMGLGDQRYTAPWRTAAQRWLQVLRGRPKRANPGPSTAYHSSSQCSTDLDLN
Method: as §1, §2, §3

mouse TGR5 = molecular target: T4, mouse TGR5 (Mus musculus, UniProt Q80SS6); assay: CRE-luciferase reporter assay in CHO-mock cells co-expressing Gi and mouse TGR5; assay type: cell-based; settings: 10 μM bile acid, mouse TGR5, versus group with no bile acid (Base)
T4 construct: expressed in transfected cells; host or cells: CHO-mock cells, transient, with Gi plasmid and reporter plasmid
T4 sequence (Q80SS6 1-329): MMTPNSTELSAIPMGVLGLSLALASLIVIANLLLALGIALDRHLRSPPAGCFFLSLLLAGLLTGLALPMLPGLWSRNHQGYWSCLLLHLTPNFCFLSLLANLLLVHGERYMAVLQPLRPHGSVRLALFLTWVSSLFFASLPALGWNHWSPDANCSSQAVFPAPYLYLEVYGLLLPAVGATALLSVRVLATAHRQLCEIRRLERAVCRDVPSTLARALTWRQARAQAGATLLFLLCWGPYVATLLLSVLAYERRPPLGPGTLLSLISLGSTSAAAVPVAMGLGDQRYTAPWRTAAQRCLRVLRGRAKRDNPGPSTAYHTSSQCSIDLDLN
Method: as §1, §2, §3

bovine TGR5 = molecular target: T5, bovine TGR5 (Bos taurus, UniProt Q862A9); assay: CRE-luciferase reporter assay in CHO-mock cells co-expressing Gi and bovine TGR5; assay type: cell-based; settings: 10 μM bile acid, bovine TGR5, versus group with no bile acid (Base)
T5 construct: expressed in transfected cells; host or cells: CHO-mock cells, transient, with Gi plasmid and reporter plasmid
T5 sequence (Q862A9 1-329): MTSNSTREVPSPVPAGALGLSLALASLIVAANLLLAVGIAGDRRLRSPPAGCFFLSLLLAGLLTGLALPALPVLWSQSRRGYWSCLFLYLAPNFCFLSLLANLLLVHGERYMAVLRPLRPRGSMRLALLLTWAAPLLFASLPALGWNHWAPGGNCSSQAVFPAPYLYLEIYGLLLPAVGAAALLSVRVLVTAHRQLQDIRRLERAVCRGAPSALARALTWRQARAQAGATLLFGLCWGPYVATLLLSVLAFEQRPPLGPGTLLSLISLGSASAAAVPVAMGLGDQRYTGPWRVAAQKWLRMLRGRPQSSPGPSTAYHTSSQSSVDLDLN
Method: as §1, §2, §3

TGR5 [2] = molecular target: T1, TGR5; assay: CRE-luciferase reporter assay in CHO-mock cells co-expressing Gi and human TGR5; assay type: cell-based; parameters: expressed in transfected cells; host or cells: CHO-mock cells (CHO(dhfr-) transformed with pAKKO-111H), transient, with Gi plasmid and reporter plasmid; settings: 10 μM bile acid, human TGR5, versus group with no bile acid (Base)
Method: as §1, §2, §3

[3] = tested on: rabbit alveolus macrophage; assay: Phagocytotic activity of rabbit alveolus macrophage (yeast uptake, fuchsin staining); settings: 100 μM, 16 hours
Method: From rabbit (NZW, female, approximately 2.5 to 3.0 kg of weight), under anesthesia, serum and lung were collected. By washing with PBS (phosphate-buffered saline) transfused through trachea, suspension containing alveolus macrophage in the lung was recovered. After washing the obtained cells with further PBS, the cells were suspended in medium (DMEM supplemented with 2% FBS, 0.1 mM non-essential amino acids, 50 μg/ml streptomycin, 50 U/ml penicillin and 50 μg/ml gentamicin; any component from GibcoBRL), loaded on Ficoll-Paque Plus (Amersham Pharmacia), isolator for mononuclear cells, and treated with centrifugation to remove erythrocyte. […] Then the cells were further cultured for 16 hours. Fifty μl of serum obtained from the same rabbit, and 0.8×10^8/ml of yeast suspension sterilized by heating, were added to the culture. Subsequently, the cell were cultured under 5% CO2 for 40 minutes. After adding 60 μl of 0.1% fuchsin solution (Wako Pure Chemicals) to the culture, the cells were peeled and were centrifuged. The suspension was observed by microscope.

Compound | cAMP production (TGR5 [1]) | luciferase activity (reporter gene expression level) (rabbit TGR5) | luciferase activity (reporter gene expression level) (rat TGR5) | luciferase activity (reporter gene expression level) (mouse TGR5) | luciferase activity (reporter gene expression level) (bovine TGR5) | luciferase activity (reporter gene expression level) (TGR5 [2]) | phagocytotic activity of macrophage [3]
C[C@H](CCC(=O)O)[C@H]1CC[C@H]2[C@@H]3[C@H](O)C[C@@H]4C[C@H](O)CC[C@]4(C)[C@H]3C[C@H](O)[C@]12C [CA, cholic acid] | increase of cAMP production, which is dependent on concentration | – | – | – | – | – | –
C[C@H](CCC(=O)O)[C@H]1CC[C@H]2[C@@H]3[C@H](O)C[C@@H]4C[C@H](O)CC[C@]4(C)[C@H]3CC[C@]12C [CDCA, chenodeoxycholic acid] | increase of cAMP production, which is dependent on concentration | higher luciferase activity than that of a group with no bile acid | higher luciferase activity than that of a group with no bile acid | higher luciferase activity than that of a group with no bile acid | higher luciferase activity than that of a group with no bile acid | higher luciferase activity than that of a group with no bile acid | –
C[C@H](CCC(=O)NCC(=O)O)[C@H]1CC[C@H]2[C@@H]3CC[C@@H]4C[C@H](O)CC[C@]4(C)[C@H]3CC[C@]12C [GLCA, glycolithocholic acid] | – | – | – | – | – | – | significantly decreased
